# Measured values: patent US8927715B2, “Inhibitors of 11β-hydroxysteroid dehydrogenase type 1” (Vitae Pharmaceuticals, Inc., priority 2006, dated 2015)
# Target: human 11β-HSD1 (Homo sapiens, UniProt P28845)
# Assay: Inhibition of a microsomal preparation of 11β-HSD1, SPA (Biological Test Example 2)
# Type: biochemical
# Set-up: expressed in transfected cells; host or cells: CHO cells (microsomes)
# Conditions: read-out: Biological Test Example 2 (IC50 class)
# Procedure: All reactions are carried out at room temperature in 96 well clear flexible PET Microbeta plates (PerkinElmer). […] After a 10 minute pre-incubation, 50 μL of enzyme solution containing microsomes isolated from CHO cells overexpressing human 11β-HSD1 (10-20 μg/ml of total protein) is added, and the plates are then incubated for 90 minutes at room temperature. The reaction is stopped by adding 50 μl of the SPA beads suspension containing […] 18β-glycyrrhetinic acid, 5 mg/ml protein A coated YSi SPA beads (GE Healthcare) and 3.3 μg/ml of anti-cortisol antibody (East Coast Biologics) in Superblock buffer (Bio-Rad). The plates are then shaken for 120 minutes at room temperature, and the SPA signal corresponding to [^3H]cortisol is measured on a Microbeta plate reader.
# Sequence of human 11β-HSD1 (P28845 whole entry): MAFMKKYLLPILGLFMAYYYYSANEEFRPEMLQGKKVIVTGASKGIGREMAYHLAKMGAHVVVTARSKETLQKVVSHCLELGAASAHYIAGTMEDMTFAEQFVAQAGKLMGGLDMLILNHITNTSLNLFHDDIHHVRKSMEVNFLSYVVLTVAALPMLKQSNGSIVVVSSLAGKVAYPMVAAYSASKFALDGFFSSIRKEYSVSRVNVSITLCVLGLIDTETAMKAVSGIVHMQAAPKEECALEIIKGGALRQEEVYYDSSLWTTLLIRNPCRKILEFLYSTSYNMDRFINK
row,Compound,IC50 [nM]
1,"3-(1′-(2-Adamantyloxycarbonyl)-1H-spiro[isoquinoline-4,4′-piperidine]-2(3H)-ylsulfonyl)propanoic acid [Example 109]",< 50
2,"3-(1′-((2-Adamantyl)carbamoyl)-1H-spiro[isoquinoline-4,4′-piperidine]-2(3H)-yl)propanoic acid [Example 33]",< 50
3,"4-(1′-(2-Adamantyloxycarbonyl)-1H-spiro[isoquinoline-4,4′-piperidine]-2(3H)-yl)-4-oxobutanoic acid [Example 94]",< 50
4,"O=C(O)CC1CC2(CCN(C(=O)NC3C4CC5CC(C4)CC3C5)CC2)c2c(Br)cccc21 (racemic) [Example 43, (±)-2-(7-Bromo-1′-((2-adamantyl)carbamoyl)-2,3-dihydrospiro[indene-1,4′-piperidine]-3-yl)acetic acid]",< 50
5,"O=C(NC1C2CC3CC(C2)CC1C3)N1CCC2(CC1)CC(Cc1nnn[nH]1)c1ccccc12 (racemic) [Example 46, (±)-3-((1H-Tetrazol-5-yl)methyl)-N-(2-adamantyl)-2,3-dihydrospiro[indene-1,4′-piperidine]-1′-carboxamide]",< 50
6,"Cc1cccc2c1C1(CCN(C(=O)NC3C4CC5CC(C4)CC3C5)CC1)CC2CC(=O)O (racemic) [Example 48, (±)-2-(1′-((2-Adamantyl)carbamoyl)-7-methyl-2,3-dihydrospiro[indene-1,4′-piperidine]-3-yl)acetic acid]",< 50
7,"O=C(O)CC1CC2(CCN(C(=O)NC3C4CC5CC(C4)CC3C5)CC2)c2c(Cl)cccc21 (racemic) [Example 52, (±)-2-(1′-((2-Adamantyl)carbamoyl)-7-chloro-2,3-dihydrospiro[indene-1,4′-piperidine]-3-yl)acetic acid]",< 50
8,"CCOC(=O)CC1CC2(CCN(C(=O)NC3C4CC5CC(C4)CC3C5)CC2)c2cc(Cl)ccc21 (racemic) [Example 53, (±)-Ethyl 2-(1′-((2-adamantyl)carbamoyl)-6-chloro-2,3-dihydrospiro[indene-1,4′-piperidine]-3-yl)acetate]",< 50
9,"Cc1ccc2c(c1)C1(CCN(C(=O)NC3C4CC5CC(C4)CC3C5)CC1)CC2CC(=O)O (racemic) [Example 57, (±)-2-(1′-((2-Adamantyl)carbamoyl)-6-methyl-2,3-dihydrospiro[indene-1,4′-piperidine]-3-yl)acetic acid]",< 50
10,"COc1ccc2c(c1)C1(CCN(C(=O)NC3C4CC5CC(C4)CC3C5)CC1)CC2CC(=O)O (racemic) [Example 59, (±)-2-(1′-((2-Adamantyl)carbamoyl)-6-methoxy-2,3-dihydrospiro[indene-1,4′-piperidine]-3-yl)acetic acid]",< 50
11,"CCOC(=O)CC1CC2(CCN(C(=O)NC34CC5CC(CC(C5)C3)C4)CC2)c2c(Br)cccc21 (racemic) [Example 61, (±)-Ethyl 2-(7-bromo-1′-((1-adamantyl)carbamoyl)-2,3-dihydrospiro[indene-1,4′-piperidine]-3-yl)acetate]",< 50
12,"O=C(O)CC1CC2(CCN(C(=O)NC34CC5CC(CC(C5)C3)C4)CC2)c2c(Br)cccc21 (racemic) [Example 62, (±)-2-(7-Bromo-1′-((1-adamantyl)carbamoyl)-2,3-dihydrospiro[indene-1,4′-piperidine]-3-yl)acetic acid]",< 50
13,"O=C(O)CC1CC2(CCN(C(=O)OC3C4CC5CC(C4)CC3C5)CC2)c2c(Br)cccc21 (racemic) [Example 63, (±)-2-(7-Bromo-1′-((2-adamantyloxy)carbonyl)-2,3-dihydrospiro[indene-1,4′-piperidine]-3-yl)acetic acid]",< 50
14,"Cc1ccc2c(c1)C1(CCN(C(=O)OC3C4CC5CC(C4)CC3C5)CC1)CC2CC(=O)O (racemic) [Example 64, (±)-2-(6-Methyl-1′-((2-adamantyloxy)carbonyl)-2,3-dihydrospiro[indene-1,4′-piperidine]-3-yl)acetic acid]",< 50
15,"Cc1ccc2c(c1)C(CC(=O)O)CC21CCN(C(=O)OC2C3CC4CC(C3)CC2C4)CC1 (racemic) [Example 65, (±)-2-(5-Methyl-1′-((2-adamantyloxy)carbonyl)-2,3-dihydrospiro[indene-1,4′-piperidine]-3-yl)acetic acid]",< 50
16,"CCOC(=O)C(C)(C)C1CC2(CCN(C(=O)NC3C4CC5CC(C4)CC3C5)CC2)c2c(Br)cccc21 (racemic) [Example 67, (±)-Ethyl 2-(7-bromo-1′-((2-adamantyl)carbamoyl)-2,3-dihydrospiro[indene-1,4′-piperidine]-3-yl)-2-methylpropanoate]",< 50
17,"CS(=O)(=O)NC(=O)CC1CC2(CCN(C(=O)NC3C4CC5CC(C4)CC3C5)CC2)c2c(Br)cccc21 (racemic) [Example 70, (±)-7-Bromo-N-(2-adamantyl)-3-(2-(methylsulfonamido)-2-oxoethyl)-2,3-dihydrospiro[indene-1,4′-piperidine]-1′-carboxamide]",< 50
18,"O=C(NC1C2CC3CC(C2)CC1C3)N1CCC2(CC1)CC(CCO)c1cccc(Br)c12 (racemic) [Example 122, (±)-7-Bromo-N-(2-adamantyl)-3-(2-hydroxyethyl)-2,3-dihydrospiro[indene-1,4′-piperidine]-1′-carboxamide]",< 50

# The next lines start with the values.
row,IC50 [nM],Compound
1,< 50,"CCOC(=O)CC1CC2(CCN(C(=O)NC3C4CC5CC(C4)CC3C5)CC2)c2c(Br)cccc21 (racemic) [Example 42, (±)-Ethyl 2-(7-bromo-1′-((2-adamantyl)carbamoyl)-2,3-dihydrospiro[indene-1,4′-piperidine]-3-yl)acetate]"
2,< 50,N#CCC1CC2(CCN(C(=O)NC3C4CC5CC(C4)CC3C5)CC2)c2ccccc21 (racemic) [Example 45]
3,< 50,"CCOC(=O)CC1CC2(CCN(C(=O)NC3C4CC5CC(C4)CC3C5)CC2)c2c(C)cccc21 (racemic) [Example 47, (±)-Ethyl 2-(1′-((2-adamantyl)carbamoyl)-7-methyl-2,3-dihydrospiro[indene-1,4′-piperidine]-3-yl)acetate]"
4,< 50,"CCOC(=O)CC1CC2(CCN(C(=O)NC3C4CC5CC(C4)CC3C5)CC2)c2cccc(C)c21 (racemic) [Example 49, (±)-Ethyl 2(1′-((2-adamantyl)carbamoyl)-4-methyl-2,3-dihydrospiro[indene-1,4′-piperidine]-3-yl)acetate]"
5,< 50,"CCOC(=O)CC1CC2(CCN(C(=O)NC3C4CC5CC(C4)CC3C5)CC2)c2c(Cl)cccc21 (racemic) [Example 51, (±)-Ethyl 2-(1′-((2-adamantyl)carbamoyl)-7-chloro-2,3-dihydrospiro[indene-1,4′-piperidine]-3-yl)acetate]"
6,< 50,"O=C(O)CC1CC2(CCN(C(=O)NC3C4CC5CC(C4)CC3C5)CC2)c2cc(Cl)ccc21 (racemic) [Example 54, (±)-2-(1′-((2-Adamantyl)carbamoyl)-6-chloro-2,3-dihydrospiro[indene-1,4′-piperidin]-3-yl)acetic acid]"
7,< 50,"CCOC(=O)CC1CC2(CCN(C(=O)NC3C4CC5CC(C4)CC3C5)CC2)c2ccc(Cl)cc21 (racemic) [Example 55, (±)-Ethyl 2-(1′-((2-adamantyl)carbamoyl)-5-chloro-2,3-dihydrospiro[indene-1,4′-piperidine]-3-yl)acetate]"
8,< 50,"O=C(O)CC1CC2(CCN(C(=O)NC3C4CC5CC(C4)CC3C5)CC2)c2ccc(Cl)cc21 (racemic) [Example 56, (±)-2-(1′-((2-Adamantyl)carbamoyl)-5-chloro-2,3-dihydrospiro[indene-1,4′-piperidine]-3-yl)acetic acid]"
9,< 50,"O=C(O)CC1CC2(CCN(C(=O)NC3C4CC5CC(C4)CC3C5)CC2)c2cc(F)ccc21 (racemic) [Example 60, (±)-2-(1′-((2-Adamantyl)carbamoyl)-6-fluoro-2,3-dihydrospiro[indene-1,4′-piperidine]-3-yl)acetic acid]"
10,< 50,"CC(C)(C(=O)O)C1CC2(CCN(C(=O)NC3C4CC5CC(C4)CC3C5)CC2)c2c(Br)cccc21 (racemic) [Example 68, (±)-2-(7-Bromo-1′-((2-adamantyl)carbamoyl)-2,3-dihydrospiro[indene-1,4′-piperidine]-3-yl-2-methylpropanoic acid]"
11,< 50,"CS(=O)(=O)NC(=O)CC1CC2(CCN(C(=O)OC3C4CC5CC(C4)CC3C5)CC2)c2c(Br)cccc21 (racemic) [Example 69, (±)-2-Adamantyl 7-bromo-3-(2-(methylsulfonamido)-2-oxoethyl)-2,3-dihydrospiro[indene-1,4′-piperidine]-1′-carboxylate]"
12,< 50,"CN(C)C(=O)CC1CC2(CCN(C(=O)OC3C4CC5CC(C4)CC3C5)CC2)c2ccccc21 (racemic) [Example 71, (±)-2-Adamantyl 3-(2-(dimethylamino)-2-oxoethyl)-2,3-dihydrospiro[indene-1,4′-piperidine]-1′-carboxylate]"
13,50 to 1000,"O=C(O)CC1CC2(CCN(C(=O)NC3C4CC5(O)CC3CC(O)(C4)C5)CC2)c2c(Br)cccc21 (racemic) [Example 76, (±)-2-(7-Bromo-1′-(1,7-dihydroxy-4-adamantylcarbamoyl)-2,3-dihydrospiro[indene-1,4′-piperidine]-3-yl)acetic acid]"
14,< 50,"O=C(O)[C@@H]1C[C@H]1C(=O)N1Cc2ccccc2C2(CCN(C(=O)OC3C4CC5CC(C4)CC3C5)CC2)C1 (mixture of isomers) [Example 100, (1RS,2RS)-2-(1′-(2-Adamantyloxycarbonyl)-2,3-dihydro-1H-spiro[isoquinoline-4,4′-piperidine]-2-ylcarbonyl)cyclopropanecarboxylic acid]"
